Measurements from patent publication US20060293227A1, “Cosmetic compositions and methods using transforming growth factor-beta mimics” (priority 2005, published 2006).
Each block holds one substance with its values, some of them ahead of it. Where no end group is shown, it is not given here. [ ]: non-standard residue; d: D form. NMeA = CN[C@@H](C)C(=O)O; Abu = CC[C@H](N)C(=O)O; Aib = CC(C)(N)C(=O)O

Legend:
[1] = tested on: Mv-1-Lu mink lung epithelial cells; experiment: Inhibition of DNA synthesis ([3H]thymidine incorporation) of Mv-1-Lu mink lung epithelial cells; format: cell-based; conditions: for Inhib by new peptide/Inhib by cytomodulin: 3H-thymidine incorporation, MV-1-Lu cells, cytomodulin at same concentration; for 3H-Radioactivity / % Inhibition of incorporation of 3H-thymidine: MV-1 Lu cells; for Inhibition of DNA synthesis / proliferation of Mv-1-Lu cells (in words): thymidine incorporation, cytomodulin at 10^-9 to 10^-6 M
Protocol: The effect of TGF-β and cytomodulin were evaluated by determining the rate of […] incorporation into total acid-insoluble DNA and cell number. See generally, Sampath et al., J. Biol. Chem., 267, pp. 20352-20362 (1992). DNA synthesis rates were determined in triplicate cultures after 24 hour treatment with various concentrations (10^−9 M to 10^−6 M) of either TGF-β or cytomodulin (which was synthesized by the Merrifield method) by adding [methyl-^3H]thymidine (2uCi/ml, 80 Ci/mmol) for 6 hours before the termination of the culture. Incorporation was terminated by aspiration of the medium, and after washing three times with phosphate-buffered saline, the trichloroacetic acid (10%)-precipitated radioactive DNA was extracted with 1.0% (w/v) sodium dodecyl sulfate, 0.1 M NaOH and quantitated by liquid scintillation counting. For cell number determination, 1×10^5 cells were plated in flasks in MEM containing 10% FBS, and after 24 hours, the growth medium was replaced with serum-free medium containing various conceptions of TGF-β and cytomodulin. Triplicate cultures were harvested every 24 hours for the duration of 7 days, and the cell number was determined by counting cells released by trypsin digestion in a fixed volume hemacytometer.
The numbers shown at the various concentration are the ratio of the inhibition rate of the peptide being tested over the inhibition rate of cytomodulin (SEQ ID NO: 1) at the same concentration.
Tests for bioactivity were conducted as described above for DNA inhibition. In summary, the cytomodulin analogs listed in Table 3 were all found active as agonists and thus, as defined herein, are considered TGF-β mimics.

skin [2] = tested on: skin; parameters: species or system human; conditions: in vivo
Text: A person, of light complexion, applied a lotion comprising cytomodulin (SEQ ID NO: 1) at a concentration of about 0.001%, in EUCERIN™, to one side of their face a at a frequency of 1-2 times per week, typically at night before sleep, leaving uncovered while leaving the other side of their face without application of the TGF-β lotion. […] For example, crows feet became more shallow and the skin and face looked fuller and smoother. Color and skin tone became more youthful in appearance. […] After 18 days of treatment, the difference in appearance between the treated and untreated sides of the face was noticeable enough that the subject began to apply the topical composition to the entire face.
The same subject applied the CM-1 lotion to the back of one hand daily, while leaving the back of the other hand untreated. The treatment continued for several weeks.

eyelids = tested on: eyelids; parameters: species or system human; conditions: in vivo
Text: A person, applied a lotion comprising cytomodulin (SEQ ID NO: 1) at a concentration of about 0.001%, to their eyelids twice per week for 2 months.

skin [3] = tested on: skin; parameters: species or system human; conditions: in vivo; remark: listed apart in the source
Text: A person, with very dry, wind-burnt skin, many fine lines, and the beginning of wrinkles, applied a lotion comprising cytomodulin (SEQ ID NO: 1) at a concentration of about 0.001% on left side of their face only, three days per week. […] Within 3 weeks there was a a noticeable difference between the two sides of the face, with the right side having more fine lines appearing much drier and weather-worn than the left (treated) side. […] The subject stopped application after 3 months because of the difference in the appearance of the two side of the face A person applied a lotion comprising cytomodulin (SEQ ID NO: 1) at a concentration of about 0.001% on right side of their neck only, daily. […] The right side of the neck is noticeably different than the left side of the neck. […] A person with noticebly wrinkled and thickened skin on the neck applied a lotion comprising cytomodulin (SEQ ID NO: 1) at a concentration of about 0.001% to their neck once every four days. The subject also used Lancome makeup with sunscreen and Oil of Olay moisturizer for sensitive skin.

NRK-49 F fibroblasts [4] = experiment: Growth and colony formation by NRK-49 F fibroblasts in soft agar; format: cell-based; conditions: 100 nM in Example 2, with EGF and PDGF
Protocol: The original assay for TGF-β, the ability to promote anchorage independent growth of normal fibroblasts is still one of the hallmarks of TGF-β activity. NRK-49 F fibroblasts were grown at 37° C. in DEM supplemented with 10% fetal calf serum. […] To this, either 100 nM TGF-β (positive control) or 100 nM cytomodulin was added. NRK49 F fibroblasts (5×10^4 cells/mi) were mixed with 0.3% agar were plated on the bottom of 35 mm culture dishes. Colony formation was observed starting on day 3 of culture.

[5] = tested on: human osteogenic sarcoma (HOS) cell line; experiment: Expression of type I collagen, TGF-β, alkaline phosphatase and osteonectin in HOS cells; format: cell-based
TGF-β activity = experiment: TGF-β like activity, overall statement from the assays used; format: cell-based; conditions: by the assays used
human dermal fibroblasts = experiment: Expression of type I collagen, TGF-β and collagenase in human dermal fibroblasts; format: cell-based; conditions: for Expression of TGF-β / Expression of collagenase: human dermal fibroblasts; for Expression of type I collagen: human dermal fibroblasts (primary cultures of neo-natal cells for cytomodulin)
NRK-49 F fibroblasts [6] = conditions: literature statement (Massagu, J. Biol. Chem. 1984); cited from earlier work

Substance: A-N-V-A-E-K (ANVAEK) [SEQ ID NO: 15]
Inhib by new peptide/Inhib by cytomodulin ([1]; concentration 10 nM): 0.80
Inhib by new peptide/Inhib by cytomodulin ([1]; concentration 100 nM): 1.00

Negative effects of application (skin [2]): No negative effects
Substance: ANVAENA [cytomodulin, Ala-Asn-Val-Ala-Glu-Asn-Ala]
Adverse effects (eyelids): No adverse effects
Accidental contact of the lotion with the eyes (skin [3]): no apparent problem or irritation
Adverse effects (skin [3]): No adverse effects
Adverse effects (subject's report) (skin [3]): no adverse effects

Substance: L-(Abu)-A-E-A-K (L[Abu]AEAK) [SEQ ID NO: 6]
3H-Radioactivity ([1]; peptide 1 nM): 2.02 10^3 dpm
% Inhibition of incorporation of 3H-thymidine ([1]; peptide 1 nM): 33%
3H-Radioactivity ([1]; peptide 5 nM): 1.97 10^3 dpm
% Inhibition of incorporation of 3H-thymidine ([1]; peptide 5 nM): 35%

Substance: L-(Aib)-A-E-A-K (L[Aib]AEAK) [SEQ ID NO: 4]
3H-Radioactivity ([1]; peptide 5 nM): 2.31 10^3 dpm
% Inhibition of incorporation of 3H-thymidine ([1]; peptide 5 nM): 35%
3H-Radioactivity ([1]; peptide 50 nM): 1.94 10^3 dpm
% Inhibition of incorporation of 3H-thymidine ([1]; peptide 50 nM): 46%
3H-Radioactivity ([1]; peptide 100 nM): 1.44 10^3 dpm
% Inhibition of incorporation of 3H-thymidine ([1]; peptide 100 nM): 60%
3H-Radioactivity ([1]; peptide 500 nM): 1.61 10^3 dpm
% Inhibition of incorporation of 3H-thymidine ([1]; peptide 500 nM): 55%
% Inhibition of incorporation of 3H-thymidine ([1]; peptide 1 mM (so in the source)): 27%
3H-Radioactivity ([1]; peptide 1 mM (so in the source), control without peptide 3.57): 2.60 10^3 dpm

Substance: L-I-(Nme-A)-E-A-K (LI[NMeA]EAK) [SEQ ID NO: 5]
3H-Radioactivity ([1]; peptide 1 nM): 1.61 10^3 dpm
% Inhibition of incorporation of 3H-thymidine ([1]; peptide 1 nM): 47%
3H-Radioactivity ([1]; peptide 5 nM): 1.76 10^3 dpm
% Inhibition of incorporation of 3H-thymidine ([1]; peptide 5 nM): 42%
3H-Radioactivity ([1]; peptide 50 nM): 1.60 10^3 dpm
% Inhibition of incorporation of 3H-thymidine ([1]; peptide 50 nM): 41%
3H-Radioactivity ([1]; peptide 100 nM): 1.81 10^3 dpm
% Inhibition of incorporation of 3H-thymidine ([1]; peptide 100 nM): 40%
3H-Radioactivity ([1]; peptide 500 nM): 1.42 10^3 dpm
% Inhibition of incorporation of 3H-thymidine ([1]; peptide 500 nM): 53%

Substance: L-I-A-D-A-K (LIADAK) [SEQ ID NO: 9]
Inhib by new peptide/Inhib by cytomodulin ([1]; concentration 1 nM): 0.45
Inhib by new peptide/Inhib by cytomodulin ([1]; concentration 10 nM): 0.87
Inhib by new peptide/Inhib by cytomodulin ([1]; concentration 100 nM): 1.14
Inhib by new peptide/Inhib by cytomodulin ([1]; concentration 1000 nM): 1.25

Substance: L-I-A-E-A-A (LIAEAA) [SEQ ID NO: 11]
Inhib by new peptide/Inhib by cytomodulin ([1]; concentration 1 nM): 1.16
Inhib by new peptide/Inhib by cytomodulin ([1]; concentration 10 nM): 1.00
Inhib by new peptide/Inhib by cytomodulin ([1]; concentration 100 nM): 1.17
Inhib by new peptide/Inhib by cytomodulin ([1]; concentration 1000 nM): 1.85

Expression of TGF-β (human dermal fibroblasts): increased the expression
Expression of collagenase (human dermal fibroblasts): decreased the expression
Expression of type I collagen (human dermal fibroblasts): increased the expression
Substance: L-I-A-E-A-K (LIAEAK) [L2]
Growth and colony formation in soft agar (NRK-49 F fibroblasts [4]): promoted the growth
Inhibition of DNA synthesis / proliferation of Mv-1-Lu cells (in words) [1]: inhibited the proliferation
Expression of TGF-β [5]: increased the expression
Expression of alkaline phosphatase [5]: increased the expression
Expression of type I collagen [5]: increased the expression
TGF-β like activity (overall) (TGF-β activity): at least as much TGF-β like activity as cytomodulin

Substance: L-I-A-G-E-G (LIAGEG) [SEQ ID NO: 14]
Inhib by new peptide/Inhib by cytomodulin ([1]; concentration 1 nM): 0.66
Inhib by new peptide/Inhib by cytomodulin ([1]; concentration 10 nM): 0.85
Inhib by new peptide/Inhib by cytomodulin ([1]; concentration 100 nM): 1.41
Inhib by new peptide/Inhib by cytomodulin ([1]; concentration 1000 nM): 1.88

Substance: L-I-A-G-G-E (LIAGGE) [SEQ ID NO: 13]
Inhib by new peptide/Inhib by cytomodulin ([1]; concentration 1 nM): 1.10
Inhib by new peptide/Inhib by cytomodulin ([1]; concentration 10 nM): 1.33
Inhib by new peptide/Inhib by cytomodulin ([1]; concentration 100 nM): 1.45
Inhib by new peptide/Inhib by cytomodulin ([1]; concentration 1000 nM): 1.90

Substance: L-I-A-K-G-K (LIAKGK) [SEQ ID NO: 16]
Inhib by new peptide/Inhib by cytomodulin ([1]; concentration 10 nM): 0.65
Inhib by new peptide/Inhib by cytomodulin ([1]; concentration 100 nM): 0.67

Substance: L-I-A-N-A-K (LIANAK) [SEQ ID NO: 10]
Inhib by new peptide/Inhib by cytomodulin ([1]; concentration 1 nM): 1.70
Inhib by new peptide/Inhib by cytomodulin ([1]; concentration 10 nM): 2.00
Inhib by new peptide/Inhib by cytomodulin ([1]; concentration 100 nM): 1.43
Inhib by new peptide/Inhib by cytomodulin ([1]; concentration 1000 nM): 3.05

Expression of TGF-β (human dermal fibroblasts): increased the expression
Expression of collagenase (human dermal fibroblasts): decreased the expression
Expression of type I collagen (human dermal fibroblasts): increased the expression
Substance: L-I-A-P-E-A (LIAPEA) [L1]
Growth and colony formation in soft agar (NRK-49 F fibroblasts [4]): promoted the growth
Inhibition of DNA synthesis / proliferation of Mv-1-Lu cells (in words) [1]: inhibited the proliferation
Expression of TGF-β [5]: increased the expression
Expression of alkaline phosphatase [5]: increased the expression
Expression of type I collagen [5]: increased the expression
TGF-β like activity (overall) (TGF-β activity): at least as much TGF-β like activity as cytomodulin

Substance: L-I-A-Q-A-K (LIAQAK) [SEQ ID NO: 12]
Inhib by new peptide/Inhib by cytomodulin ([1]; concentration 1 nM): 0.90
Inhib by new peptide/Inhib by cytomodulin ([1]; concentration 10 nM): 1.10
Inhib by new peptide/Inhib by cytomodulin ([1]; concentration 100 nM): 0.80
Inhib by new peptide/Inhib by cytomodulin ([1]; concentration 1000 nM): 1.56

Substance: TGF-β
Growth and colony formation in soft agar (NRK-49 F fibroblasts [4]): grew colonies
Colony formation in the absence of EGF and PDGF (NRK-49 F fibroblasts [6]): does not induce colony formation
